Key:
Type in all cases: cell-based
[1] = tested on: Klebsiella pneumonia; assay: MIC against Gram-negative bacteria: Klebsiella pneumonia; conditions: 5×10^5 CFU/mL; for MIC K. pneumonia: two-fold serial dilution
Procedure, shortened: (§1)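 Bacteria grown in LB at 37° C to McFarland 0.5, resuspended and seeded at 5×10^5 CFU/mL in 96-well plates. Purified human EGF-domain proteins two-fold serially diluted, triplicate wells; cultured at 37° C, shaking 175 rpm. MIC = lowest protein concentration with no growth.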

[2] = tested on: E. coli BL21; assay: MIC against Gram-negative bacteria: E. coli BL21; conditions: 5×10^5 CFU/mL; for MIC E. coli BL21: two-fold serial dilution
Procedure, shortened: as §1

[3] = tested on: Enterobacter cloacae; assay: MIC against Gram-negative bacteria: Enterobacter cloacae; conditions: 5×10^5 CFU/mL; for MIC E. cloacae: two-fold serial dilution
Procedure, shortened: as §1

[4] = tested on: E. coli DH5α; assay: Antibacterial activity: MIC and growth curve against E. coli DH5α in 96-well plate; conditions: minimal inhibitory concentration against E. coli DH5α; 96-well plate, 5×10^5 CFU/mL, 37° C., judged after 8 h
Procedure, shortened: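 MIC taken as lowest protein level with no bacterial growth, tracked by A600 every 30 min during 37 °C, 175 rpm culture. Two-fold protein series 50-12.5 μg/mL final, triplicate wells, against 5×10^5 CFU/mL of LB-washed mid-log cells.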

[5] = tested on: Proteus vulgaris; assay: MIC against Gram-negative bacteria: Proteus vulgaris; conditions: 5×10^5 CFU/mL; for MIC P. vulgaris: two-fold serial dilution
Procedure, shortened: as §1

[6] = tested on: Proteus mirabilis; assay: MIC against Gram-negative bacteria: Proteus mirabilis; conditions: 5×10^5 CFU/mL; for MIC P. mirabilis: two-fold serial dilution
Procedure, shortened: as §1

[7] = tested on: Pseudomonas aeruginosa; assay: MIC against Gram-negative bacteria: Pseudomonas aeruginosa; conditions: 5×10^5 CFU/mL; for MIC P. aeruginosa: two-fold serial dilution
Procedure, shortened: as §1

[8] = tested on: Aeromonas hydrophila; assay: MIC against Gram-negative bacteria: Aeromonas hydrophila; conditions: 5×10^5 CFU/mL; for MIC A. hydrophila: two-fold serial dilution
Procedure, shortened: as §1

[9] = tested on: Moraxella catarrhalis; assay: MIC against Gram-negative bacteria: Moraxella catarrhalis; conditions: 5×10^5 CFU/mL; for MIC M. catarrhalis: two-fold serial dilution
Procedure, shortened: as §1

[10] = tested on: Serratia marcescens; assay: MIC against Gram-negative bacteria: Serratia marcescens; conditions: 5×10^5 CFU/mL; for MIC S. marcescens: two-fold serial dilution
Procedure, shortened: as §1

[11] = tested on: Citrobacter diversus; assay: MIC against Gram-negative bacteria: Citrobacter diversus; conditions: 5×10^5 CFU/mL; for MIC C. diversus: two-fold serial dilution
Procedure, shortened: as §1

[12] = K. pneumonia, 10 h cultivation at 37° C.
[13] = E. coli BL21, 10 h cultivation at 37° C.
[14] = E. cloacae, 10 h cultivation at 37° C.
[15] = P. vulgaris, 10 h cultivation at 37° C.
[16] = P. mirabilis, 10 h cultivation at 37° C.
[17] = P. aeruginosa, 10 h cultivation at 37° C.
[18] = A. hydrophila, 10 h cultivation at 37° C.
[19] = M. catarrhalis, 10 h cultivation at 37° C.
[20] = S. marcescens, 10 h cultivation at 37° C.
[21] = C. diversus, 10 h cultivation at 37° C.

For “PRT146 (DRDECSFQPGPCSTLVQCFNTQGSFYCGACPTGWQGNGYICE; listed as Homo sapiens)”, the “MIC (μg/mL) K. pneumonia” value [1, 12] was 50 µg/mL, the “MIC (μg/mL) E. coli BL21” value [2, 13] was 50 µg/mL and the “MIC (μg/mL) E. cloacae” value [3, 14] was 12.5 µg/mL. For the same substance, the MIC [4] was 12.5 µg/mL, the “MIC (μg/mL) P. vulgaris” value [5, 15] was 12.5 µg/mL and the “MIC (μg/mL) P. mirabilis” value [6, 16] was 25 µg/mL. The “MIC (μg/mL) P. aeruginosa” value [7, 17] was 12.5 µg/mL, the “MIC (μg/mL) A. hydrophila” value [8, 18] was 12.5 µg/mL and the “MIC (μg/mL) M. catarrhalis” value [9, 19] was 12.5 µg/mL. For the same substance, the “MIC (μg/mL) S. marcescens” value [10, 20] was 25 µg/mL and the “MIC (μg/mL) C. diversus” value [11, 21] was 25 µg/mL.

“PRT47 (CTCSGHANICHLHTGKCFCTTKGIKGDQCQLCDSENRYVGNPLRGTCYY; listed as Homo sapiens)” was tested, and the “MIC (μg/mL) K. pneumonia” value ([1]; Klebsiella pneumonia, 96-well plate, 37° C., 10 h) was 12.5 µg/mL, the “MIC (μg/mL) E. coli BL21” value ([2]; E. coli BL21, 96-well plate, 37° C., 10 h) was 25 µg/mL and the “MIC (μg/mL) E. cloacae” value ([3]; Enterobacter cloacae, 96-well plate, 37° C., 10 h) was 25 µg/mL. The MIC [4] was 12.5 µg/mL, the “MIC (μg/mL) P. vulgaris” value ([5]; Proteus vulgaris, 96-well plate, 37° C., 10 h) was 50 µg/mL and the “MIC (μg/mL) P. mirabilis” value ([6]; Proteus mirabilis, 96-well plate, 37° C., 10 h) was 25 µg/mL. The “MIC (μg/mL) P. aeruginosa” value ([7]; Pseudomonas aeruginosa, 96-well plate, 37° C., 10 h) was 12.5 µg/mL, the “MIC (μg/mL) A. hydrophila” value ([8]; Aeromonas hydrophila, 96-well plate, 37° C., 10 h) was 12.5 µg/mL and the “MIC (μg/mL) M. catarrhalis” value ([9]; Moraxella catarrhalis, 96-well plate, 37° C., 10 h) was 12.5 µg/mL. The “MIC (μg/mL) S. marcescens” value ([10]; Serratia marcescens, 96-well plate, 37° C., 10 h) was 12.5 µg/mL and the “MIC (μg/mL) C. diversus” value ([11]; Citrobacter diversus, 96-well plate, 37° C., 10 h) was 50 µg/mL.

“PRT1044 (FGQDCAETCDCAPDARCFPANGACLCEHGFTGDRCT; listed as Homo sapiens)” was tested, and the “MIC K. pneumonia” value ([1]; 10 h cultivation at 37° C.) was 12.5 µg/mL, the “MIC E. coli BL21” value ([2]; 10 h cultivation at 37° C.) was 50 µg/mL and the “MIC E. cloacae” value ([3]; 10 h cultivation at 37° C.) was 50 µg/mL. The MIC [4] was 100 µg/mL, the “MIC P. vulgaris” value ([5]; 10 h cultivation at 37° C.) was 25 µg/mL and the “MIC P. mirabilis” value ([6]; 10 h cultivation at 37° C.) was 12.5 µg/mL. The “MIC P. aeruginosa” value ([7]; 10 h cultivation at 37° C.) was 50 µg/mL, the “MIC A. hydrophila” value ([8]; 10 h cultivation at 37° C.) was 50 µg/mL and the “MIC M. catarrhalis” value ([9]; 10 h cultivation at 37° C.) was 25 µg/mL. For the same substance, the “MIC S. marcescens” value ([10]; 10 h cultivation at 37° C.) was 50 µg/mL and the “MIC C. diversus” value ([11]; 10 h cultivation at 37° C.) was 50 µg/mL.

Substance “PRT427 (DVNECETGVHRCGEGQVCHNLPGSYRCDCKAGFQRDAFGRGCI; listed as Homo sapiens)” has an MIC [1, 12] of 50 µg/mL, an MIC [2, 13] of 12.5 µg/mL and an MIC [3, 14] of 25 µg/mL. It also gave an MIC [4] of 25 µg/mL, an MIC [5, 15] of 12.5 µg/mL and an MIC [6, 16] of 25 µg/mL. The MIC [7, 17] was 25 µg/mL, the MIC [8, 18] was 12.5 µg/mL and the MIC [9, 19] was 50 µg/mL. The MIC [10, 20] was 25 µg/mL and the MIC [11, 21] was 25 µg/mL.

With “PRT454 (LPDQCTPNPCDRKGTQACQDLMGNFFCLCKAGWGGRLCD; listed as Homo sapiens)” the “MIC against K. pneumonia” value ([1]; 96-well plate, 37° C., 10 h) was 50 µg/mL, the “MIC against E. coli BL21” value ([2]; 96-well plate, 37° C., 10 h) was 12.5 µg/mL and the “MIC against E. cloacae” value ([3]; 96-well plate, 37° C., 10 h) was 25 µg/mL. The MIC [4] was 50 µg/mL, the “MIC against P. vulgaris” value ([5]; 96-well plate, 37° C., 10 h) was 50 µg/mL and the “MIC against P. mirabilis” value ([6]; 96-well plate, 37° C., 10 h) was 12.5 µg/mL. For the same substance, the “MIC against P. aeruginosa” value ([7]; 96-well plate, 37° C., 10 h) was 25 µg/mL, the “MIC against A. hydrophila” value ([8]; 96-well plate, 37° C., 10 h) was 12.5 µg/mL and the “MIC against M. catarrhalis” value ([9]; 96-well plate, 37° C., 10 h) was 50 µg/mL. The “MIC against S. marcescens” value ([10]; 96-well plate, 37° C., 10 h) was 12.5 µg/mL and the “MIC against C. diversus” value ([11]; 96-well plate, 37° C., 10 h) was 25 µg/mL.

In the case of “PRT1085 (HARKCNETAKSYCVNGGVCYYIEGINQLSCKCPNGFFGQRCL; listed as Homo sapiens)”, the “MIC K. pneumonia” value ([1]; 10 h cultivation at 37° C.) is reported as 50 µg/mL, the “MIC E. coli BL21” value ([2]; 10 h cultivation at 37° C.) is reported as 12.5 µg/mL and the “MIC E. cloacae” value ([3]; 10 h cultivation at 37° C.) is reported as 12.5 µg/mL. For the same substance, the MIC [4] was 25 µg/mL, the “MIC P. vulgaris” value ([5]; 10 h cultivation at 37° C.) was 50 µg/mL and the “MIC P. mirabilis” value ([6]; 10 h cultivation at 37° C.) was 12.5 µg/mL. For the same substance, the “MIC P. aeruginosa” value ([7]; 10 h cultivation at 37° C.) was 12.5 µg/mL, the “MIC A. hydrophila” value ([8]; 10 h cultivation at 37° C.) was 50 µg/mL and the “MIC M. catarrhalis” value ([9]; 10 h cultivation at 37° C.) was 50 µg/mL. For the same substance, the “MIC S. marcescens” value ([10]; 10 h cultivation at 37° C.) was 25 µg/mL and the “MIC C. diversus” value ([11]; 10 h cultivation at 37° C.) was 12.5 µg/mL.

Reference: patent publication US9833497B2, “Human originated EGF domain proteins and use of the same” (CHENGDU SOURCEBIO LIMITED-LIABILITY COMPANY, priority 2013, dated 2017)
